Assay results as given in the NIST ThermoML archive (doi:10.1021/je3013342).

Key:
[1] = 101 kPa, Liquid, Vibrating tube method
[2] = xn = mol fraction of the nth substance listed; conditions: 101 kPa, Liquid, Vibrating tube method

CC(Cl)(Cl)Cl [1,1,1-trichloroethane]
[1]
Conditions	mass density [kg/m3]
298.15 K	1328.24
308.15 K	1311.45
318.15 K	1294.47

CC(Cl)(Cl)Cl [1,1,1-trichloroethane] + C[N+](=O)[O-]
mass density [kg/m3], [2]
Conditions	x1 = 0.0921	x1 = 0.1727	x1 = 0.2614	x1 = 0.3951	x1 = 0.4862	x1 = 0.5904	x1 = 0.7066	x1 = 0.8358	x1 = 0.9012	x1 = 1
298.15 K	1161.87	1185.48	1208.35	1238.06	1255.6	1273.47	1291.18	1308.67	1316.72	1328.24
308.15 K	1147.77	1170.98	1193.5	1222.71	1239.96	1257.52	1274.93	1292.14	1300.08	1311.45
318.15 K	1133.54	1156.35	1178.49	1207.19	1224.13	1241.39	1258.49	1275.42	1283.24	1294.47

ClC(Cl)C(Cl)Cl [1,1,2,2-tetrachloroethane]
[1]
Conditions	mass density [kg/m3]
298.15 K	1588.23
308.15 K	1572.66
318.15 K	1557.04

ClC(Cl)C(Cl)Cl [1,1,2,2-tetrachloroethane] + C[N+](=O)[O-]
mass density [kg/m3], [2]
Conditions	x1 = 0.0711	x1 = 0.1888	x1 = 0.2563	x1 = 0.3464	x1 = 0.4341	x1 = 0.5431	x1 = 0.6654	x1 = 0.8211	x1 = 0.9285	x1 = 1
298.15 K	1191.08	1275.68	1318	1366.65	1408.57	1454.03	1497.84	1544.6	1571.92	1588.23
308.15 K	1177.12	1261.26	1303.41	1351.85	1393.61	1438.91	1482.56	1529.17	1556.4	1572.66
318.15 K	1163.03	1246.76	1288.69	1336.94	1378.54	1423.68	1467.2	1513.67	1540.82	1557.04

ClCCCl [1,2-dichloroethane]
[1]
Conditions	mass density [kg/m3]
298.15 K	1245.59
308.15 K	1230.96
318.15 K	1216.16

ClCCCl [1,2-dichloroethane] + C[N+](=O)[O-]
[2], x1 = 1
Conditions	mass density [kg/m3]
298.15 K	1245.59
308.15 K	1230.96
318.15 K	1216.16

ClCCCCl [1,3-dichloropropane]
[1]
Conditions	mass density [kg/m3]
298.15 K	1180.1
308.15 K	1167.7
318.15 K	1155.21

ClCCCCl [1,3-dichloropropane] + C[N+](=O)[O-]
mass density [kg/m3], [2]
Conditions	x1 = 0.0878	x1 = 0.1939	x1 = 0.2938	x1 = 0.3998	x1 = 0.5028	x1 = 0.6154	x1 = 0.7207	x1 = 0.8326	x1 = 0.9404	x1 = 1
298.15 K	1135.58	1141.34	1146.79	1152.41	1157.65	1163.15	1168.07	1173.04	1177.55	1180.1
308.15 K	1122.12	1128.05	1133.64	1139.39	1144.76	1150.38	1155.41	1160.49	1165.1	1167.7
318.15 K	1108.53	1114.63	1120.37	1126.26	1131.76	1137.51	1142.65	1147.84	1152.56	1155.21

ClCCCCCl [1,4-dichlorobutane]
[1]
Conditions	mass density [kg/m3]
298.15 K	1133.94
308.15 K	1123
318.15 K	1112

ClCCCCCl [1,4-dichlorobutane] + C[N+](=O)[O-]
mass density [kg/m3], [2]
Conditions	x1 = 0.0825	x1 = 0.1759	x1 = 0.2825	x1 = 0.3815	x1 = 0.4815	x1 = 0.5911	x1 = 0.6898	x1 = 0.8208	x1 = 0.9262	x1 = 1
298.15 K	1128.17	1126.77	1126.33	1126.62	1127.33	1128.46	1129.64	1131.38	1132.86	1133.94
308.15 K	1114.98	1113.92	1113.86	1114.44	1115.42	1116.8	1118.18	1120.16	1121.81	1123
318.15 K	1101.65	1100.97	1101.28	1102.17	1103.42	1105.05	1106.65	1108.88	1110.7	1112

CCCCCl [1-chlorobutane]
[1]
Conditions	mass density [kg/m3]
298.15 K	881.17
308.15 K	870
318.15 K	858.67

CCCCCl [1-chlorobutane] + C[N+](=O)[O-]
[2], x1 = 1
Conditions	mass density [kg/m3]
298.15 K	881.17
308.15 K	870
318.15 K	858.67

CCCCCCl [1-chloropentane]
[1]
Conditions	mass density [kg/m3]
298.15 K	877.09
308.15 K	866.97
318.15 K	856.73

CCCCCCl [1-chloropentane] + C[N+](=O)[O-]
mass density [kg/m3], [2]
Conditions	x1 = 0.1043	x1 = 0.1721	x1 = 0.2575	x1 = 0.3466	x1 = 0.4525	x1 = 0.5435	x1 = 0.6864	x1 = 0.8325	x1 = 0.8859	x1 = 1
298.15 K	1075.06	1045.39	1014.58	987.6	960.73	941.21	916.34	895.75	889.18	877.09
308.15 K	1062.09	1032.77	1002.33	975.7	949.19	929.96	905.49	885.27	878.82	866.97
318.15 K	1048.99	1020.02	989.95	963.67	937.53	918.59	894.51	874.65	868.33	856.73

C[N+](=O)[O-] [nitromethane]
[1]
Conditions	mass density
298.15 K	1130.9 kg/m3 [middle of 5 runs]
308.15 K	1117.28 kg/m3 [middle of 6 runs]
318.15 K	1103.53 kg/m3 [middle of 6 runs]

C[N+](=O)[O-] [nitromethane] + CC(Cl)(Cl)Cl
[2], x2 = 0
Conditions	mass density [kg/m3]
298.15 K	1130.91
308.15 K	1117.29
318.15 K	1103.55

C[N+](=O)[O-] [nitromethane] + CCCCCCl
[2], x2 = 0
Conditions	mass density [kg/m3]
298.15 K	1130.86
308.15 K	1117.23
318.15 K	1103.48

C[N+](=O)[O-] [nitromethane] + CCCCCl
mass density [kg/m3], [2]
Conditions	x2 = 0	x2 = 0.1107	x2 = 0.2174	x2 = 0.3236	x2 = 0.3932	x2 = 0.4856	x2 = 0.5569	x2 = 0.6626	x2 = 0.7722	x2 = 0.8646
298.15 K	1130.76	1080.18	1040.11	1007.02	987.92	965.38	949.92	929.96	911.75	898.07
308.15 K	1117.14	1067	1027.27	994.47	975.54	953.21	937.92	918.09	900.15	886.65
318.15 K	1103.39	1053.7	1014.29	982.09	963.01	940.87	925.76	906.2	888.4	875.07

C[N+](=O)[O-] [nitromethane] + ClC(Cl)C(Cl)Cl
[2], x2 = 0
Conditions	mass density [kg/m3]
298.15 K	1130.86
308.15 K	1117.24
318.15 K	1103.5

C[N+](=O)[O-] [nitromethane] + ClC(Cl)Cl
mass density [kg/m3], [2]
Conditions	x2 = 0	x2 = 0.1197	x2 = 0.1772	x2 = 0.3007	x2 = 0.4009	x2 = 0.5	x2 = 0.5978	x2 = 0.7194	x2 = 0.8607	x2 = 0.9562
298.15 K	1130.86	1189.05	1214.82	1265.96	1303.55	1337.74	1368.78	1404.19	1441.14	1463.58
308.15 K	1117.24	1174.6	1200	1250.36	1287.37	1321	1351.55	1386.34	1422.65	1444.71
318.15 K	1103.5	1160.01	1185.02	1234.59	1271	1304.11	1334.09	1368.25	1403.89	1425.56

C[N+](=O)[O-] [nitromethane] + ClCCCCCl
[2], x2 = 0
Conditions	mass density [kg/m3]
298.15 K	1130.95
308.15 K	1117.32
318.15 K	1103.57

C[N+](=O)[O-] [nitromethane] + ClCCCCl
[2], x2 = 0
Conditions	mass density [kg/m3]
298.15 K	1130.9
308.15 K	1117.28
318.15 K	1103.53

C[N+](=O)[O-] [nitromethane] + ClCCCl
mass density [kg/m3], [2]
Conditions	x2 = 0	x2 = 0.1132	x2 = 0.2235	x2 = 0.3249	x2 = 0.4672	x2 = 0.5586	x2 = 0.6264	x2 = 0.7349	x2 = 0.857	x2 = 0.923
298.15 K	1130.86	1147.31	1162.54	1175.69	1192.94	1203.25	1210.49	1221.8	1233.37	1239.2
308.15 K	1117.24	1133.59	1148.71	1161.77	1178.89	1189.11	1196.29	1207.48	1218.91	1224.67
318.15 K	1103.5	1119.73	1134.75	1147.71	1164.69	1174.81	1181.96	1192.99	1204.28	1209.97

ClC(Cl)Cl [trichloromethane]
[1]
Conditions	mass density [kg/m3]
298.15 K	1473.42
308.15 K	1454.33
318.15 K	1434.98

ClC(Cl)Cl [trichloromethane] + C[N+](=O)[O-]
[2], x1 = 1
Conditions	mass density [kg/m3]
298.15 K	1473.42
308.15 K	1454.33
318.15 K	1434.98
